{"source": "paper PMC6934184", "about": "“Selective DNA-PKcs inhibition extends the therapeutic index of localized radiotherapy and chemotherapy” (The Journal of Clinical Investigation, 2019)", "target": "T1, ULK2 (Homo sapiens, UniProt Q8IYT8)", "T1 construct": "purchased Thermo Fisher Scientific (Life Technologies) SelectScreen", "T1 sequence (Q8IYT8 whole entry)": "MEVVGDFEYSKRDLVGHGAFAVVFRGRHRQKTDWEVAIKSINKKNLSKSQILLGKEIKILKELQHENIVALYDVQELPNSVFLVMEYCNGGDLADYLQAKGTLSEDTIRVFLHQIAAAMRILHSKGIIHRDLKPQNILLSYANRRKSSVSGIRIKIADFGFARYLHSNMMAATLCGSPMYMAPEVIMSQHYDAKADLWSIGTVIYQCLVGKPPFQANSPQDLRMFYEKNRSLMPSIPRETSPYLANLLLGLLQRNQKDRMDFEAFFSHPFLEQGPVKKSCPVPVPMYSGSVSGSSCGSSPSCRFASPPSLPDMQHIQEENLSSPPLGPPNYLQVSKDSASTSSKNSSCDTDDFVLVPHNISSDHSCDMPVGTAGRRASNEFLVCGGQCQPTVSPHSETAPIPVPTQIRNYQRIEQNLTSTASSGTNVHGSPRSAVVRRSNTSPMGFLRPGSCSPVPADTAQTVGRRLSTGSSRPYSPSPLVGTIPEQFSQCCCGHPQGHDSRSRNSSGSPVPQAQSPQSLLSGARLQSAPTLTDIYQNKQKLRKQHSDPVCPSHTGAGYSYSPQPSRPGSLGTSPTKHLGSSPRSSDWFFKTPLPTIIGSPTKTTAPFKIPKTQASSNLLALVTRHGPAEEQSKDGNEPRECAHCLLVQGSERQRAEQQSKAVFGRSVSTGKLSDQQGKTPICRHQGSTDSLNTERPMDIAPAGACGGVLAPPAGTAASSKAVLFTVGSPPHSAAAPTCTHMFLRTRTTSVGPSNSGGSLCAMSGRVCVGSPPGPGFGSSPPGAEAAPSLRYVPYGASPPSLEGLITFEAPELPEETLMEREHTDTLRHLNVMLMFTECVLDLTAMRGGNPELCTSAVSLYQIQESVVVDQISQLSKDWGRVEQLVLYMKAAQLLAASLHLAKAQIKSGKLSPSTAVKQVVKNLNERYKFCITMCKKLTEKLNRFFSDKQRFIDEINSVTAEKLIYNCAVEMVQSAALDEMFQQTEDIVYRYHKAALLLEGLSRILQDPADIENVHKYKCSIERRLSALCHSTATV", "assay": "SelectScreen LanthaScreen", "format": "binding", "details": "read-out: % displacement", "procedure,_shortened": "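NU5455 was profiled across the SelectScreen Broad panel of kinase activity and binding assays. Z'LYTE reactions such as CSF1R ran at apparent Km ATP, while the Adapta CAMK1 assay used ATP listed as 10. Values are given as percent.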"}
{"smiles": "CN(C(=O)CN1CCOCC1)c1ccc2sc3c(-c4cccc5c(=O)cc(N6CC7CCC(C6)O7)oc45)cccc3c2c1", "note": "[NU5455]", "values": [{"measurement": "inhibition at 1 µM", "value": 0.9, "unit": "%"}]}
